Assay results taken from article PMC7926627, “Fine-Tuning the Biological Profile of Multitarget Mitochondriotropic Antioxidants for Neurodegenerative Diseases” (Antioxidants, 2021).

Assays:
[1] = Chromatographic hydrophobicity index by gradient RP-HPLC at pH 2.3
Method: Chromatographic hydrophobicity indexes (CHIs) at pH 2.3 were determined using an experimental protocol described elsewhere [45, 46] and included in the supplementary information.
Evaluation of the chromatographic hydrophobicity index
Chromatographic hydrophobicity indexes (CHIs) values were determined using the
retention times (tR) of samples and a mixture of reference compounds. The data was acquired on
a Shimadzu high-performance liquid chromatograph SPD-M20A system (Shimadzu, Kyoto,
Japan) with a Luna C18 (2) column (Phenomenex, CA, USA) 150×4.6 mm, 5 µm. In CHI
determinations at pH 2.3, mobile phase A was aqueous solution of acetic acid 1 % (v/v) (pH 2.3),
and mobile phase B was acetonitrile. The following gradient program was applied: 1 mL/min
Calibration plots were obtained using a mixture of the following compounds:
paracetamol, theophylline, caffeine, benzimidazole, colchicine, carbamazepine, indole,
propiophenone, butyrophenone, valerophenone, and heptanophenone (Table S1, Figure S2).
hydrophobicity index (CHI) values were calculated as previously described [13, 14].

[2] = Oxygen radical absorbance capacity (ORAC-FL) assay; conditions: for ROO• radical scavenging: ORAC-FL; for ORAC-FL Index: relative Trolox equivalent ORAC value
hBChE = target: T1, hBChE (Homo sapiens, UniProt P06276, N45Q/N483Q/N509Q/N514Q); experiment: Recombinant hBChE inhibition, Ellman's buffer; type: biochemical
T1 construct: made in house
T1 sequence (P06276 29-557 N45Q/N483Q/N509Q/N514Q limits assumed): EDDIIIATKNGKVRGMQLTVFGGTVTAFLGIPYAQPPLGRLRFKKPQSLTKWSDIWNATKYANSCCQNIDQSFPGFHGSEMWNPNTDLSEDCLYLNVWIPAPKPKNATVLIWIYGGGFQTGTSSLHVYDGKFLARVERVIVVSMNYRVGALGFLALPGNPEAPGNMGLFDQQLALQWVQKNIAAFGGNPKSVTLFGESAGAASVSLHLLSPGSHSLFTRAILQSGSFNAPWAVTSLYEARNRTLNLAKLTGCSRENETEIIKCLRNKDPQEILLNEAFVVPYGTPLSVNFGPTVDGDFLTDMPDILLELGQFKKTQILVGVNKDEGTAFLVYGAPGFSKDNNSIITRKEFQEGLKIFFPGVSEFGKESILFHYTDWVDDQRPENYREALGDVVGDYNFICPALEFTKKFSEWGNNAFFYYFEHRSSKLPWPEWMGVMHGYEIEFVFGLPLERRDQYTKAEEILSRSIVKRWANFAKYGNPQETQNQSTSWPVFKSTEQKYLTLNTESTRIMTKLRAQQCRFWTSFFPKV
Method: (§1) Recombinant hAChE and hBChE were produced and purified as previously described. Test compounds were dissolved in methanol 100 % to prepare stock solutions at 40 mM and subsequently diluted in water to reach the desired concentrations. Recombinant hAChE and hBChE activities were measured in presence of appropriate compound concentrations by spectrophotometry at 412 nm and 25 °C in a 1 mL cuvette containing Ellman’s buffer (0.5 mM DTNB, 0.1% BSA, 0.1 M phosphate, pH 7.4). Measurements were performed at least in duplicate for each tested concentration and final methanol concentrations were kept below 5%.

hMAO-A = target: T2, hMAO-A (Homo sapiens, UniProt P21397); experiment: hMAO-A inhibition, kynuramine substrate; type: biochemical
T2 construct: purchased Sigma Aldrich; host or cells: insect cells (BTI-TN-5B1-4), baculovirus
T2 sequence (P21397 1-527): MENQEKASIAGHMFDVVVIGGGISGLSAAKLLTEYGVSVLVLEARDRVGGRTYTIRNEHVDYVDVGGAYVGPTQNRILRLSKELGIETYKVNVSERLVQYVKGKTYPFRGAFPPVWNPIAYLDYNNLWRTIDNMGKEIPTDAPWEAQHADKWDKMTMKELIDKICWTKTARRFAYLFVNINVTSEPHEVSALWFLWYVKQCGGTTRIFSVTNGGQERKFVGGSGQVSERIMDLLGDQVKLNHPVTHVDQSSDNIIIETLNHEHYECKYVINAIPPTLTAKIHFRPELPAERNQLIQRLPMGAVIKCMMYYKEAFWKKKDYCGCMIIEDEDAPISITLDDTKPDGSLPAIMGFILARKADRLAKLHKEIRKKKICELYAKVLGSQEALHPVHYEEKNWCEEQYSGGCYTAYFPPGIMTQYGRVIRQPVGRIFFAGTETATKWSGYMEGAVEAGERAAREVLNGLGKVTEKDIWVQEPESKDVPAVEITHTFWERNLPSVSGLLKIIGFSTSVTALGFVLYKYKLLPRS
Method: The inhibitory activity of lipophilic TPP^+ cations on hMAO-A and hMAO-B was studied using an experimental protocol described elsewhere [29, 40]
Evaluation of human monoamine oxidase (hMAO) inhibitory activity The human monoamine oxidase (hMAO) inhibitory outline was assessed in microsomal MAO isoforms prepared from insect cells (BTI-TN-5B1-4) infected with recombinant baculovirus containing cDNA inserts for hMAO-A or hMAO-B an d by measuring the enzymatic conversion rates of kynuramine into 4-hydroxyquinoline. The appropriate amounts of hMAO-A and hMAO-B were adjusted to obtain, in our experimental conditions, the same maximum
All assays were performed in sodium phosphate buffer solution 50 mM pH 7.4.
The compounds under study and reference inhibitors were pre-incubated at 37 °C for 10
concentration: 2×Km) in 96-well microplates (BRANDplates, pureGradeTM, BRAND GMBH, Wertheim, Germany). Then, the reaction was started with the addition of hMAO-A or hMAO-B.
Initial velocities were determined spectrophotometrically in a microplate reader (BioTek Synergy HT from BioTek Instruments, Winooski, VT, USA) at 37 °C by measuring the formation of 4-
The initial velocities, obtained from the linear phase of product formation, were normalized and plotted against the respective inhibitor concentration. IC50 values were obtained from dose-response curves and were expressed as mean ± standard deviation. IC50 values were determined from at least three independent experiments, each performed in triplicate.

hAChE = target: T3, hAChE (Homo sapiens, UniProt P22303); experiment: Recombinant hAChE inhibition, Ellman's buffer; type: biochemical
T3 construct: made in house
T3 sequence (P22303 32-574 limits assumed): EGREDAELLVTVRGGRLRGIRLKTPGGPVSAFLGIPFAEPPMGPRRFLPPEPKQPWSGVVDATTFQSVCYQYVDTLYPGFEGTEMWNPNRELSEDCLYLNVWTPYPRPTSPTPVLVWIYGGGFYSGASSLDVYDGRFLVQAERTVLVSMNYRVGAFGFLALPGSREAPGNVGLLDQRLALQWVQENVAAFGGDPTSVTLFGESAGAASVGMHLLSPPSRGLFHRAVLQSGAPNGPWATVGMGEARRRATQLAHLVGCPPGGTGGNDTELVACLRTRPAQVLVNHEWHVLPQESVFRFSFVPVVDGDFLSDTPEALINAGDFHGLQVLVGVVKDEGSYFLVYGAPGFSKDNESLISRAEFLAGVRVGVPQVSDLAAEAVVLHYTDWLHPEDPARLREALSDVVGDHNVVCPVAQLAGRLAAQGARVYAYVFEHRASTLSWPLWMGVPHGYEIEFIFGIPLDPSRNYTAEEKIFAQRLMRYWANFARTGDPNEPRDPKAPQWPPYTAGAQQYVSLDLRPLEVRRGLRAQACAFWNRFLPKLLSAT
Method: as §1

[3] = tested on: differentiated SH-SY5Y cells; experiment: Resazurin reduction assay (cytotoxicity); type: cell-based, human; conditions: 24 h
Method: For cytotoxicity studies, differentiated SH-SY5Y cells were incubated with increasing concentrations of the test compounds (0.20–100 µM) for 24 h. Controls were treated with culture media containing 0.1% DMSO. Cell viability was estimated using two different methods: resazurin reduction assay and NR uptake assay. […]
days. The cultures were passaged once a week by trypsinization (0.25 % trypsin/1 mM EDTA).
To avoid phenotypic changes, the cells used for all experiments were taken between 19th and 28th passages. Cells were differentiated as described previously by Fernandes et al.. Briefly, SH-SY5Y cells were seeded onto 96-well plates at a density of 25,000 cells/cm2 in cell culture medium with trans-retinoic acid (RA) (final concentration of 10 µM) and incubated for 3 days at 37 °C in a humidified, 5% CO2−95% air atmosphere. The cell culture medium was then removed and replaced with medium supplemented with 12-O-tetradecanoylphorbol-13-acetate (TPA) (final concentration 80 nM), and cells were incubated for 3 days. Stock solutions of RA (10 mM) and TPA (80 µM) were prepared in DMSO.
1.5.3. Cytotoxicity assays
1.5.3.1. Resazurin reduction assay
Resazurin is a non-fluorescent, non-toxic water-soluble dye able to permeate through cell […]
highly fluorescent resorufin [8, 9]. Since the conversion of resazurin into resorufin occurs mostly in mitochondria, the amount of resorufin produced can be used as indicator of metabolic activity. The quantity of resorufin production is proportional to the number of viable cells in culture and can be quantified fluorometrically or colorimetrically.
Resazurin reduction assay was performed as previously described by Fernandes et al..
Briefly, after the 24 h incubation periods with the test compounds, the cell culture medium was removed and replaced with fresh culture medium with resazurin (10 μg/mL) prepared in cell culture medium. Differentiated SH-SY5Y cells were incubated for 2 h at 37 °C in a humidified 5% CO2−95% air atmosphere. Then, the fluorescence was read in a multiwell microplate reader (PowerWave XS from BioTek Instruments, Vermont, US), using an excitation wavelength of 540 nm and an emission wavelength of 590 nm. The results were expressed as the percentage of resazurin reduction relative to that of the control (non-treated) cells [resazurin reduction (% of […]
1.5.3.2. Neutral red uptake assay
The neutral red (NR) uptake assay is based on the ability of viable cells to incorporate the supravital dye NR and retain it inside the lysosomes. NR uptake assay was performed as previously described by Fernandes et al. Briefly, after the 24 h incubation periods with the test compounds, the cell culture medium was removed and NR solution ([…]) in fresh cell culture medium was added. Differentiated SH-SY5Y cells and Caco-2 cells were incubated for 2 h and 1 h, respectively, at 37 °C in a humidified, 5% CO2−95% air atmosphere. Then, the cell culture medium was removed and replaced by ethanol absolute/distilled water (1:1) with 5 % acetic acid to liberate the dye from the viable cells. The absorbance was measured at 540 nm in a […]

[4] = target: T4, eeAChE (electric eel acetylcholinesterase) (Electrophorus electricus, UniProt O42275); experiment: eeAChE inhibition, Ellman's method; type: biochemical
T4 construct: Eel acetylcholinesterase (eeAChE, E.C. 3.1.1.7, from Electrophorus electricus); purchased Sigma Aldrich
T4 sequence (O42275 24-633): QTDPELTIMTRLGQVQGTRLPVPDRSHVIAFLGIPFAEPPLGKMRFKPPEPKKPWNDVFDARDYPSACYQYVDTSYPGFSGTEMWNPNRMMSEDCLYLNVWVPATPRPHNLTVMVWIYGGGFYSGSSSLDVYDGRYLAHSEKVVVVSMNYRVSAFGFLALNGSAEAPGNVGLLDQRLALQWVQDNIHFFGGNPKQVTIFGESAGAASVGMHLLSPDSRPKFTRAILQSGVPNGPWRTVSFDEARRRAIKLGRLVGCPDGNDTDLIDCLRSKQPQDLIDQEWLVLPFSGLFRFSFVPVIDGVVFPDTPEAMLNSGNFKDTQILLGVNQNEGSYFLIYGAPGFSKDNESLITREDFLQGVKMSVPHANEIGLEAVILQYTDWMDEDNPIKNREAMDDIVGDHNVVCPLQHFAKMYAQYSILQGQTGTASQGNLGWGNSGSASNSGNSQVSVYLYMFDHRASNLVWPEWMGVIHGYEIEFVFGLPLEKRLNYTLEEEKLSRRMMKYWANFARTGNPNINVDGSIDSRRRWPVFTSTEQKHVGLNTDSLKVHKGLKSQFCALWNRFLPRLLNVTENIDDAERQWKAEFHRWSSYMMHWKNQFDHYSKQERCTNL
Method: The eeAChE and eqBChE inhibitory activities of the compounds under study were determined following the Ellman’s method [32, 33]
Substrate solutions (ATCI or BCTI) were prepared in deionized water (conductivity ˂ 0.1 µS.cm-
Evaluation of eel acetylcholinesterase and equine butyrylcholinesterase inhibitory
The eeAChE and eqBChE inhibitory activities of the compounds under study were evaluated following the Ellman’s method [1, 2]. Briefly, a mixture containing sodium phosphate buffer, enzyme (final concentration: eeAChE 0.05 U/mL and eeBChE 0.05 U/mL), DTNB (final concentration: 400 µM) and the test compounds/reference inhibitors were preincubated for 5 minutes at 30 °C in a 96-well microplate (BRANDplates, pureGradeTM, BRAND GMBH, Wertheim, Germany). In control experiments, sodium phosphate buffer was used instead of the
ºC in a microplate reader (BioTek Synergy HT from BioTek Instruments, Winooski, VT, USA).
The rates of the substrate enzymatic hydrolysis were determined, normalized and plotted against the respective inhibitor concentration. IC50 values were obtained from the dose-response curves
and were expressed as mean ± standard deviation. IC50 values were determined in at least three
independent experiments, each performed at least in triplicates.

[5] = tested on: differentiated SH-SY5Y cells; experiment: Neutral red (NR) uptake assay (cytotoxicity); type: cell-based, human; conditions: 24 h; for effect on NR uptake: increasing concentrations up to 100 µM
Method: To avoid phenotypic changes, the cells used for all experiments were taken between 19th and 28th passages. Cells were differentiated as described previously by Fernandes et al. [6]. Briefly, SH-SY5Y cells were seeded onto 96-well plates at a density of 25,000 cells/cm2 in cell culture medium with trans-retinoic acid (RA) (final concentration of 10 µM) and incubated for 3 days at
The neutral red (NR) uptake assay is based on the ability of viable cells to incorporate the supravital dye NR and retain it inside the lysosomes [11]. NR uptake assay was performed as previously described by Fernandes et al. [12] Briefly, after the 24 h incubation periods with the test compounds, the cell culture medium was removed and NR solution (50 mg/mL) in fresh cell culture medium was added. Differentiated SH-SY5Y cells and Caco-2 cells were incubated for 2
multiwell microplate reader (PowerWave XS from BioTek Instruments). The results were
expressed as the percentage of NR uptake relative to that of the control (non-treated) cells [NR
uptake (% of control)] ± standard error mean (SEM) of at least three independent experiments.
Stock solutions of the test compounds (10 µM) were prepared in DMSO and diluted in

[6] = at concentrations above 12.5 µM

SMILES	CHI [1]	ROO• radical scavenging [2]	IC50 (hBChE)	SI (2): hBChE selectivity index = IC50(hAChE)/IC50(hBChE) (hBChE)	IC50 (hMAO-A)	IC50 (hAChE)	concentrations in which the resazurin reduction was significantly decreased [3]	resorufin fluorescence (% of control) ([3]; at concentrations above 25 µM)	IC50 [4]	effect on NR uptake [5]	ORAC-FL Index [2]	effect on resazurin reduction ([3]; concentrations up to 100 µM)	resorufin fluorescence (% of control) [3, 6]	lysosomal toxicity (NR uptake) [5, 6]
O=C(/C=C/C=C/c1ccc2c(c1)OCO2)NCCCC[P+](c1ccccc1)(c1ccccc1)c1ccccc1.[Br-] [Compound 2, (4-((2E,4E)-5-(Benzo[d][1,3]dioxol-5-yl)penta-2,4-dienamido)butyl)triphenylphosphonium bromide]	42.8	unable to scavenge ROO• radicals	0.2 ± 0.04 µM	55	0.888 ± 0.022 µM	11 ± 1 µM	≥ 50 µM	< 85%	6.39 ± 0.28 µM	remained constant				
O=C(/C=C/C=C/c1ccc(O)c(O)c1)NCCCC[P+](c1ccccc1)(c1ccccc1)c1ccccc1.[Br-] [Compound 4, (4-((2E,4E)-5-(3,4-Dihydroxyphenyl)penta-2,4-dienamido)butyl)triphenylphosphonium bromide]	34.4		3 ± 0.2 µM	7.3	5.17 ± 0.54 µM	22 ± 2 µM			2.23 ± 0.12 µM	remained constant	3.3 ± 0.1	did not markedly affect		
O=C(/C=C/C=C/c1ccc(O)c(O)c1)NCCCCCC[P+](c1ccccc1)(c1ccccc1)c1ccccc1.[Br-] [Compound 5, (6-((2E,4E)-5-(3,4-Dihydroxyphenyl)penta-2,4-dienamido)hexyl)triphenylphosphonium bromide]	37.2		23 ± 2 µM	0.39	2.17 ± 0.28 µM	9 ± 0.5 µM	≥ 50 µM	< 85%	2.14 ± 0.06 µM	remained constant	3.1 ± 0.3			
O=C(/C=C/C=C/c1ccc2c(c1)OCO2)NCCCCCC[P+](c1ccccc1)(c1ccccc1)c1ccccc1.[Br-] [Compound 3, (6-((2E,4E)-5-(Benzo[d][1,3]dioxol-5-yl)penta-2,4-dienamido)hexyl)triphenylphosphonium bromide]	45.8	unable to scavenge ROO• radicals	3 ± 0.4 µM	0.67	1.23 ± 0.13 µM	2 ± 0.2 µM			5.74 ± 0.32 µM				< 85%	significant lysosomal toxicity
